PMC9987361, “Interaction of hemorphins with ACE homologs” (Scientific Reports, 2023)
Read-outs that look alike come from different tables or passages of the source. No end group written: not given here.

What was measured:
ACE1 = target: T1, ACE1 (Homo sapiens, UniProt P12821); assay: In vitro ACE1 inhibition assay (colorimetric ACE1 Kit-WST, absorbance 450 nm); assay type: biochemical
T1 construct: purchased Dojindo Laboratories
Protocol: ACE1 inhibition was measured using the absorbance-based colorimetric ACE1 Kit-WST (Dojindo Laboratories, Mashiki-machi, Japan) according to the kit instructions. […] The 18 peptides (Table 2) were initially screened in a single run at concentrations of 0, 10, 50, 100, 200, and 500 µM. […] In a 96-well microplate, 20 µL of each hemorphin concentration was pipetted into each well. In addition, 20 µL and 40 µL of deionized water were pipetted into blank 1 and blank 2 wells, respectively, and 20 µL of substrate buffer and 20 µL of enzyme working solution were pipetted into each sample well and blank 1 well.
The microplate was incubated at 37 °C for 1 h. After incubation, 200 µL of indicator working solution was pipetted to each well and then incubated for 5 min at room temperature.
The absorbance was then measured at 450 nm using a Glomax Discover Microplate Reader (Promega, Madison, WI, USA). ACE1 inhibition was measured using the equation given below: Inhibitionrate%=Blank1-Sample/Blank1-Blank2×100 where Blank1 (without a sample but with enzyme working solution) and Blank2 (without a sample and no enzyme working solution) are 20 µL and 40 µL deionized water, respectively.
The half-maximal inhibitory concentration (IC50) was determined using GraphPad Prism version 9 (GraphPad, San Diego, CA) from a nonlinear regression inhibition plot against the peptide concentration.

[1] = Dissolution of purchased peptides during sample preparation; assay type: physicochemical; settings: sample preparation for ACE1 screening
Protocol: All the purchased peptides were screened in an initial run at 0, 10, 50, 100, 200, and 500 µM.

ACE2 = test system: ACE2; parameters: method as in printed at the sentence; settings: clinically used ACE1 inhibitors; background statement, ref not given; cited from earlier work
[2] = IC50 (μM) ± SD against ACE1, mean ± SD of three independent experiments (triplicate runs)
[3] = IC50 values of initial single-run peptide screening, single run at 0, 10, 50, 100, 200 and 500 µM, unit not given for IC50

T1 sequence (P12821 30-1306): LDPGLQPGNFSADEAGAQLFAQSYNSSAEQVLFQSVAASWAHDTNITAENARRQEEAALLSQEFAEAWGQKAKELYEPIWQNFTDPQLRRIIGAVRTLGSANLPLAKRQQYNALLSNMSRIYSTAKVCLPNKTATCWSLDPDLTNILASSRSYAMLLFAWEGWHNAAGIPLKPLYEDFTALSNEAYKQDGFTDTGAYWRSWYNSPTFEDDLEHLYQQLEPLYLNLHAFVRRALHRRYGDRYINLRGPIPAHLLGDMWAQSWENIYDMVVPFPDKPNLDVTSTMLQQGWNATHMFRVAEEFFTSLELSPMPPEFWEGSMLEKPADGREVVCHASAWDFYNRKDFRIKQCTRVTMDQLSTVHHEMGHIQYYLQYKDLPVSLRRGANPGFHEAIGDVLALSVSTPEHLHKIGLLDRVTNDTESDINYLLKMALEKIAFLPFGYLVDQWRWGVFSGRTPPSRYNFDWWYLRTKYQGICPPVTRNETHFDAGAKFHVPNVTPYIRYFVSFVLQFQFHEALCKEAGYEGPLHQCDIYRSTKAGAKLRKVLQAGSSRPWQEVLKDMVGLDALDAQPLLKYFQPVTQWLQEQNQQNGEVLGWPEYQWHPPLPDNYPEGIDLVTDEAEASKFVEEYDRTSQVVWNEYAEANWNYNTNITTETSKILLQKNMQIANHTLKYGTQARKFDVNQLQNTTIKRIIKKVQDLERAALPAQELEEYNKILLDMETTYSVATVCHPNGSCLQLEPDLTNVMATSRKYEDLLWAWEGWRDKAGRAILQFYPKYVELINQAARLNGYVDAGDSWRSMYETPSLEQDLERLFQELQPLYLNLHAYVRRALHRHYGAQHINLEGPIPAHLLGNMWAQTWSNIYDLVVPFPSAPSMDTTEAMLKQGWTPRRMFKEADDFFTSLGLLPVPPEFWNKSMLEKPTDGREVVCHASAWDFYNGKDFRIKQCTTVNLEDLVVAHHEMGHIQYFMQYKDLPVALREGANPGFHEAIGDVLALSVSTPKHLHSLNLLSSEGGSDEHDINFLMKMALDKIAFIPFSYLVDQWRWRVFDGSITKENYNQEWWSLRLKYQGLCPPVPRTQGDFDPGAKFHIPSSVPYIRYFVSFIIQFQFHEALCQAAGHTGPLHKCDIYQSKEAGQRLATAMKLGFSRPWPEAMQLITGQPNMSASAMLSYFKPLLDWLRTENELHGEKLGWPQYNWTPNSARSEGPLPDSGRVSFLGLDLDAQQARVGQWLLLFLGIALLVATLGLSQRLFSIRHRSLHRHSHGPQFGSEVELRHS

| Compound | IC50 (ACE1; [2]) [µM] | IC50 (ACE1; [3]) [µM] | other results |
| --- | --- | --- | --- |
| LVVYPWTRR [Camel LVVHem6] | 5.12 ± 0.7 | 25.9 | – |
| VVYPWTQR [VVHem6] | 12.7 | 30.3 | – |
| Tyr-Pro-Trp-Thr-Gln (YPWTQ; printed: Tyr-Pro-Trp-Thr-Gln) [Hem5] | – | – | Dissolution during sample preparation [1]: did not dissolve |
| LVVYPWTQ [LVVHem5] | 20.1 ± 1.33 | 36.7 | – |
| VVYPWTRRF [Camel VVHem7] | – | 51.4 | – |
| LVVYPWTR [Camel LVVHem5] | 6.88 ± 1.89 | 21.2 | – |
| LVVYPWTQR [LVVHem6] | 6.45 | 14.9 | – |
| Tyr-Pro-Trp-Thr [Hem4] | – | – | IC50 values of initial single-run peptide screening (ACE1; single run at 0, 10, 50, 100, 200 and 500 µM, unit not given for IC50): No IC50 |
| CC(C)C[C@H](N)C(=O)N[C@H](C(=O)N[C@H](C(=O)N[C@@H](Cc1ccc(O)cc1)C(=O)N1CCC[C@H]1C(=O)N[C@@H](Cc1c[nH]c2ccccc12)C(=O)N[C@H](C(=O)N[C@@H](CCC(N)=O)C(=O)N[C@@H](CCCNC(=N)N)C(=O)N[C@@H](Cc1ccccc1)C(=O)O)[C@@H](C)O)C(C)C)C(C)C [LVVHem7] | 13.1 ± 2.87 | 29.3 | – |
| NCCCC[C@H](N[C@@H](CCc1ccccc1)C(=O)O)C(=O)N1CCC[C@H]1C(=O)O [lisinopril] | – | – | Activity against ACE2 (ACE2): inactivity |
| YPWTQRF [Hem7, Tyr-Pro-Trp-Thr-Gln-Arg-Phe] | – | 95.1 | – |
| VVYPWTRR [Camel VVHem6] | – | 44.1 | – |
| YPWTQR [Hem6, Tyr-Pro-Trp-Thr-Gln-Arg] | – | 80.2 | – |
| CC(C)C[C@H](N)C(=O)N[C@H](C(=O)N[C@H](C(=O)N[C@@H](Cc1ccc(O)cc1)C(=O)N1CCC[C@H]1C(=O)N[C@@H](Cc1c[nH]c2ccccc12)C(=O)N[C@H](C(=O)N[C@@H](CCCNC(=N)N)C(=O)N[C@@H](CCCNC(=N)N)C(=O)N[C@@H](Cc1ccccc1)C(=O)O)[C@@H](C)O)C(C)C)C(C)C [Camel LVVHem7] | 11.1 ± 2.18 | 25.8 | – |
| YPWTRR [Camel Hem6] | – | – | Dissolution during sample preparation [1]: did not dissolve |
| YPWTRRF [Camel Hem7, Tyr-Pro-Trp-Thr-Arg-Arg-Phe] | 23.6 ± 3.7 | 44.1 | – |
| YPWTR [Camel Hem5, Tyr-Pro-Trp-Thr-Arg] | – | – | IC50 (ACE1): 78.8 µM |
| C[C@H](CS)C(=O)N1CCC[C@H]1C(=O)O [captopril] | – | – | Activity against ACE2 (ACE2): inactivity |
